# Experiments:
# Format in all cases: cell-based
# [1] = system: Aspergillus fumigatus; experiment: Antifungal activity in vitro, resazurin growth inhibition: Aspergillus fumigatus (B42928)
# How it was run: (§1)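 Compound dilutions, with 64 μM as the highest in-test level, are spotted onto plates, then an inoculum of 10^3 cfu in RPMI-1640 plus 2% glucose (MOPS, pH 7.0±0.1) is added. Plates are incubated at species-dependent time and temperature, up to a week or more at 27° C. for dermatophytes.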
# [2] = system: Trichophyton rubrum; experiment: Antifungal activity in vitro, resazurin growth inhibition: Trichophyton rubrum (B68183)
# How it was run: (§2)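 Resazurin conversion to fluorescent resorufin (ex 550/em 590 nm) served as the growth readout. Compounds spanned 2- or 4-fold serial dilutions with 64 μM top in-test concentration; inoculum 10^3 cfu per well in MOPS-buffered RPMI-1640 (pH 7.0, 2% glucose). Incubation species-dependent, dermatophytes at 27° C. for ≥1 week.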
# [3] = system: Sporothrix schenkii; experiment: Antifungal activity in vitro, resazurin growth inhibition: Sporothrix schenkii (B62482)
# How it was run: as §1
# [4] = system: Scedosporium prolificans; experiment: Antifungal activity in vitro, resazurin growth inhibition: Scedosporium prolificans (IHEM21157)
# Experimental: (§3) The standard susceptibility screen is performed in 96-well plates (U-bottom, Greiner Bio-One). Serial dilutions (2-fold or 4-fold) of 20 mM compound stock solutions are made in 100% DMSO, followed by an intermediate dilution step in water. These serial dilutions (10 μl) are then spotted onto test-plates that can be stored in the dark at 4° C. for a maximum period of 2 weeks. An adequate broad dose-range is included with 64 μM as the highest in-test concentration. The culture medium RPMI-1640 is supplemented with L-glutamine, 2% glucose and buffered with 3-(N-morpholino)-propanesulfonic acid (MOPS) at pH 7.0±0.1.
# (§4) The different fungal species/isolates (Table 3a) are cryopreserved and 1/1000 diluted in medium just prior to use. A standard inoculum of 200 μl containing 10^3 colony-forming unit (cfu) is then added to each well. A positive control (100% growth=fungal culture without antifungal) and a negative control (0% growth ═RPMI-MOPS medium) are included on each plate. Optimal incubation time and temperature are dependent on the fungal species and vary from 24 h for yeasts (37° C.) to one week or more for dermatophytes (27° C.). Inhibition of fungal growth is measured after adding 10 μl of 0.005% (w/v) resazurin (Sigma Aldrich) to each well, based on the principle that living cells convert the non-fluorescent blue resazurin into the pink and fluorescent resorufin, allowing fluorimetric reading (λex 550 nm and λem 590 nm) after an additional incubation period (‘resa’ time mentioned in Table 3a).
# [5] = system: Cryptococcus neoformans; experiment: Antifungal activity in vitro, resazurin growth inhibition: Cryptococcus neoformans (B66663)
# How it was run: as §1
# [6] = system: Candida parapsilosis; experiment: Antifungal activity in vitro, resazurin growth inhibition: Candida parapsilosis (B66126)
# How it was run: as §1
# [7] = system: Rhizomucor miehei; experiment: Antifungal activity in vitro, resazurin growth inhibition: Rhizomucor miehei (IHEM13391)
# Experimental: as §3, §4
# [8] = system: Scedosporium apiospermum; experiment: Antifungal activity in vitro, resazurin growth inhibition: Scedosporium apiospermum (IHEM3817)
# Experimental: as §3, §4
# [9] = system: Microsporum canis; experiment: Antifungal activity in vitro, resazurin growth inhibition: Microsporum canis (B68128)
# How it was run: as §2
# [10] = system: Rhizopus oryzae; experiment: Antifungal activity in vitro, resazurin growth inhibition: Rhizopus oryzae (IHEM5223)
# Experimental: as §3, §4
# [11] = system: Trichophyton mentagrophytes; experiment: Antifungal activity in vitro, resazurin growth inhibition: Trichophyton mentagrophytes (B70554)
# How it was run: as §2
"Inf. E: Aspergillus fumigatus B42928, pIC50 [1]","Inf. C: Trichophyton rubrum B68183, pIC50 [2]","Inf. A: Sporothrix schenkii B62482, pIC50 [3]","Inf. I: Scedosporium prolificans IHEM21157, pIC50 [4]","Inf. F: Cryptococcus neoformans B66663, pIC50 [5]","Inf. D: Candida parapsilosis B66126, pIC50 [6]","Inf. K: Rhizomucor miehei IHEM13391, pIC50 [7]","Inf. H: Scedosporium apiospermum IHEM3817, pIC50 [8]","Inf. B: Microsporum canis B68128, pIC50 [9]","Inf. J: Rhizopus oryzae IHEM5223, pIC50 [10]","Inf. G: Trichophyton mentagrophytes B70554, pIC50 [11]",Compound
6.63,6.33,<4.19,6.28,<4.19,4.69,<4.19,6.12,5.72,<4.19,5.76,Clc1cc(C2=NCc3c(Cl)cccc3-n3cccc32)cnc1Cl [Compound 79]
6.28,6.85,<4.19,6.24,<4.19,5.285,<4.19,6.01,6.37,<4.19,6.24,CC(F)(F)c1ccc(C2=NCc3c(Cl)cccc3-n3cccc32)cn1 [Compound 82]
5.33,6.68,<4.19,6.09,<4.19,<4.19,<4.19,<4.19,4.97,<4.19,5.88,CC(F)(F)c1ccc(C2=NCc3c(F)cccc3-n3cccc32)cn1 [Compound 83]
6.24,6.26,5.65,<4.19,5.88,5.44,<4.19,5.31,6.24,<4.19,5.88,CC(F)(F)c1ccc(C2=NCc3c(Cl)cc(Cl)cc3-n3cccc32)cn1 [Compound 84]
6.28,6.81,4.63,4.81,5.86,5.61,<4.19,5.44,6.73,<4.19,6.60,CC(F)(F)c1ccc(C2=NCc3c(Cl)cc(F)cc3-n3cccc32)cn1 [Compound 85]
5.68,6.30,4.94,5.77,4.99,5.56,<4.19,4.43,5.67,<4.19,5.59,CC(F)(F)c1ccc(C2=NCc3c(F)cc(F)cc3-n3cccc32)cn1 [Compound 86]
4.94,6.54,<4.19,5.71,<4.19,<4.19,<4.19,<4.19,5.97,<4.19,5.18,FC(F)(F)c1ccc(C2=NCc3ccccc3-n3cccc32)cn1 [Compound 87]
<4.19,7.10,4.85,6.14,<4.19,<4.19,<4.19,5.28,6.63,<4.19,5.80,Cc1cccc2c1CN=C(c1ccc(C(F)(F)F)nc1)c1cccn1-2 [Compound 88]
5.70,6.75,<4.19,6.28,<4.19,6.17,<4.19,<4.19,6.14,<4.19,6.23,FC(F)(F)c1ccc(C2=NCc3c(Cl)cccc3-n3cccc32)cn1 [Compound 89]
5.75,6.27,5.10,5.28,<4.19,<4.19,<4.19,<4.19,5.69,<4.19,5.72,FC(F)(F)c1ccc(C2=NCc3c(Cl)cc(Cl)cc3-n3cccc32)cn1 [Compound 91]
<4.19,6.09,<4.19,<4.19,<4.19,<4.19,<4.19,<4.19,<4.19,<4.19,<4.19,CC(=O)c1ccc(C2=NCc3c(Cl)cccc3-n3cccc32)cn1 [Compound 92]
5.13,6.19,<4.19,<4.19,4.58,4.59,<4.19,<4.19,5.71,<4.19,5.92,CC(=O)c1ccc(C2=NCc3c(F)cc(F)cc3-n3cccc32)cn1 [Compound 94]
5.05,6.84,4.59,5.18,<4.19,<4.19,<4.19,<4.19,6.34,<4.19,6.01,FC(F)(F)c1ncc(C2=NCc3c(Cl)cccc3-n3cccc32)cn1 [Compound 102]

Compound,"Inf. E: Aspergillus fumigatus B42928, pIC50 [1]","Inf. C: Trichophyton rubrum B68183, pIC50 [2]","Inf. A: Sporothrix schenkii B62482, pIC50 [3]","Inf. I: Scedosporium prolificans IHEM21157, pIC50 [4]","Inf. F: Cryptococcus neoformans B66663, pIC50 [5]","Inf. D: Candida parapsilosis B66126, pIC50 [6]","Inf. K: Rhizomucor miehei IHEM13391, pIC50 [7]","Inf. H: Scedosporium apiospermum IHEM3817, pIC50 [8]","Inf. B: Microsporum canis B68128, pIC50 [9]","Inf. J: Rhizopus oryzae IHEM5223, pIC50 [10]","Inf. G: Trichophyton mentagrophytes B70554, pIC50 [11]"
Clc1ccc(C2=NCc3c(Cl)cccc3-n3cccc32)cn1 [Compound 77],6.05,6.22,4.52,5.57,5.03,4.69,<4.19,4.88,5.67,<4.19,5.71

# — patent US9493468B2, “Antifungal 5,6-dihydro-4H-pyrrolo[1,2-a][1,4]benzo-diazepines and 6H-pyrrolo[1,2-a][1,4]benzodiazepines substituted with heterocyclic derivatives” (Janssen Pharmaceutica NV, priority 2011, dated 2016)
